Consider seven compounds from patent publication US5859004A, “Use of heterocyclic compounds for the treatment of conditions caused by malfunctioning of the nicotinic cholinergic system” (Novo Nordisk A/S, priority 1995, dated 1999).

Series [1] addresses T1, nicotinic acetylcholine receptors (rat cortical receptors) (Rattus norvegicus, UniProt P09483+P12390).
T1 construct: Fresh or frozen rat, brain tissue (hippocampus or cortex) was homogenized; from tissue; host or cells: rat brain tissue (hippocampus or cortex)
Nature of the series: Inhibition of specific binding of ^3 H-methylcarbamylcholine (^3 H-MCC). Particulars: for Ratio Oxo/MCC: IC50 ^3 H-Oxo / IC50 ^3 H-MCC, selectivity nicotinic over muscarinic; for IC50: rat cortical receptors, ^3 H-MCC 2 nM, 0° C., 60 min. From the text: The pharmacological properties of the compounds of the invention can be illustrated by determining their capability to inhibit the specific binding of ^3 H-methylcarbamylcholine (^3 H-MCC) (Abood and Grassi, Biochem. Pharmacol., Vol. 35, pp. 4199--4202, (1986)).
^3 H-MCC labels the nicotinic receptors in the CNS. The inhibitory effect on ^3 H-MMC binding reflects the affinity for nicotinic acetylcholine receptors.
Fresh or frozen rat, brain tissue (hippocampus or cortex) was homogenized in assay buffer (50 mM Tris-HCl, pH 7.4, 120 mM NaCl, 5 mM KCl, 2 mM CaCl2, 1 mM MgCl2) and centrifuged for 10 min. at 40.000×g. Pellets were subsequently reconstituted in assay buffer and an appropriate amount of tissue sample was mixed in tubes with ^3 H-methylcarbamylcholine (NEN, NET-951; final concentration 2 nM) and test drug. The tubes were incubated at 0° C. for 60 min. Unbound ligand was separated from bound ligand by vacuum filtration through GF/B filters presoaked in 0.5% polyethylenimine. Filters were washed three times with 5 ml wash buffer (50 mM Tris-HCl, pH 7.4) and transferred to vials. 4 ml scintillation fluid was added and the radioactivity was measured by scintillation counting. Unspecific binding was measured with 10 μM nicotine.
The IC50 values of the test compounds were determined by nonlinear regression analyses (GraphPad InPlot).
Table I illustrates the affinity of the compounds of the present invention for nicotinic and muscarinic receptors as determined by ^3 H-MCC and ^3 H-Oxo binding to rat cortical receptors. The compounds, however, show selective affinity for nicotinic receptors as compared to muscarinic receptors, i.e OXO/MCC>1.

Series [2] deals with muscarinic acetylcholine receptors (rat cortical receptors). Nature of the series: Inhibition of specific binding of ^3 H-Oxotremorine-M (^3 H-Oxo). Particulars: rat cortex; ^3 H-Oxotremorine 1.0 nM, 25° C., 30 min. From the text: Furthermore, the pharmacological properties of the compounds of the invention can also be illustrated by determining their capability to inhibit the specific binding of ^3 H-Oxotremorine-M (^3 H-Oxo). Birdsdall N. J. M., Hulme E. C., and Burgen A. S. V. (1980). "The Character of Muscarinic Receptors in Different Regions of the Rat Brain". Proc. Roy. Soc. London (Series B) 207,1.
^3 H-Oxo labels muscarinic receptor in the CNS (with a preference for agonist domains of the receptors). Three different sites are labelled by ^3 H-Oxo. […] Using the present experimental conditions only the high and medium affinity sites are determined.
The inhibitory effects of compounds on ^3 H-Oxo binding reflects the affinity for muscarinic acetylcholine receptors.
All preparations are performed at 0°-4° C. unless otherwise indicated. Fresh cortex (0.1-1 g) from male Wistar rats (150-250 g) is homogenized for 5-10 s in 10 ml 20 mM Hepes pH: 7.4, with an Ultra-Turrax homogenizer. The homogenizer is rinsed with 10 ml of buffer and the combined suspension centrifuged for 15 min. at 40,000×g. The pellet is washed three times with buffer. In each step the pellet is homogenized as before in 2×10 ml of buffer and centrifuged for 10 min. at 40,000×g.
The final pellet is homogenized in 20 mM Hepes pH: 7.4 (100 ml per g of original tissue) and used for binding assay. Aliquots of 0.5 ml is added 25 μl of test solution and 25 μl of ^3 H-Oxotremorine (1.0 nM, final concentration) mixed and incubated for 30 min. at 25° C. Non-specific binding is determined in triplicate using arecoline (1 μg/ml, final concentration) as the test substance. After incubation samples are added 5 ml of ice-cold buffer and poured directly onto Whatman GF/C glass fiber filters under suction and immediately washed 2 times with 5 ml of ice-cold buffer. The amount of radioactivity on the filters are determined by conventional liquid scintillation counting. Specific binding is total binding minus non specific binding.
Test substances are dissolved in 10 ml water (if necessary heated on a steam-bath for less than 5 min.) at a concentration of 2.2 mg/ml. 25-75% inhibition of specific binding must be obtained before calculation of IC50. The test value will be given as IC50 (the concentration (nM) of the test substance which inhibits the specific binding of ^3 H-Oxo by 50%).
IC50 =(applied test substance concentration)×(Cx /Co
where Co is specific binding in control assays and Cx is the specific binding in the test assay. (The calculations assume normal mass-action kinetics).
Table I illustrates the affinity of the compounds of the present invention for nicotinic and muscarinic receptors as determined by ^3 H-MCC and ^3 H-Oxo binding to rat cortical receptors. […]

Series [3] has the same target. Particulars: read-out: affinity of site labelled by ^3 H-Oxo, cited from earlier work.
In another series the test system is nicotinic. The note with it: age related; cited from earlier work.
The next series has as its system healthy humans. The note with it: cited from earlier work.
In series [4] the test system is Alzheimer's disease patients. The note with it: cited from earlier work.
The next series deals with substantia nigra. Particulars: chronic nicotine; lesioning; cited from earlier work.
A further series concerns Tourette's syndrome. Particulars: in vivo; cited from earlier work.
The subject of a further series is dopamine release. The note with it: nucleus accumbens versus striatum; cited from earlier work.
For the next series, the system named is dopaminergic effects. Particulars: various behavioral models; cited from earlier work.

What is called IC50 is the concentration at which inhibition is half-maximal.

Read-outs that look alike come from different tables or passages of the source.

T1 sequence (P09483 31-630): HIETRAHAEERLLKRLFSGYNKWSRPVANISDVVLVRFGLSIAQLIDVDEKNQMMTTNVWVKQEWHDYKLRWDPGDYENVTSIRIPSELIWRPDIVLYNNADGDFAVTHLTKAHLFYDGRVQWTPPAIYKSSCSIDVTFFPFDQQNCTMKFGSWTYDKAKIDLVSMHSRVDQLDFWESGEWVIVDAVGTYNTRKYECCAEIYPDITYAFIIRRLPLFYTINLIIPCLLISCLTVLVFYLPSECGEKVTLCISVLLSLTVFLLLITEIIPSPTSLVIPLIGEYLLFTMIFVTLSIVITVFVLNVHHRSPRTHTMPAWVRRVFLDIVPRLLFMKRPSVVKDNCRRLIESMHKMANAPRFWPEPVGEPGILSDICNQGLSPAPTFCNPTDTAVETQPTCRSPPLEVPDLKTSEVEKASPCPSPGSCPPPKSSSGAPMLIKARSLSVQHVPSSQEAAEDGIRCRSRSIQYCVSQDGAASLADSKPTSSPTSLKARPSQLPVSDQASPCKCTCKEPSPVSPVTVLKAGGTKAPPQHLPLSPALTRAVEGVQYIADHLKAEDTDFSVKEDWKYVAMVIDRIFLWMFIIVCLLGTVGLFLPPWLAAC
T1 sequence (P12390 25-500): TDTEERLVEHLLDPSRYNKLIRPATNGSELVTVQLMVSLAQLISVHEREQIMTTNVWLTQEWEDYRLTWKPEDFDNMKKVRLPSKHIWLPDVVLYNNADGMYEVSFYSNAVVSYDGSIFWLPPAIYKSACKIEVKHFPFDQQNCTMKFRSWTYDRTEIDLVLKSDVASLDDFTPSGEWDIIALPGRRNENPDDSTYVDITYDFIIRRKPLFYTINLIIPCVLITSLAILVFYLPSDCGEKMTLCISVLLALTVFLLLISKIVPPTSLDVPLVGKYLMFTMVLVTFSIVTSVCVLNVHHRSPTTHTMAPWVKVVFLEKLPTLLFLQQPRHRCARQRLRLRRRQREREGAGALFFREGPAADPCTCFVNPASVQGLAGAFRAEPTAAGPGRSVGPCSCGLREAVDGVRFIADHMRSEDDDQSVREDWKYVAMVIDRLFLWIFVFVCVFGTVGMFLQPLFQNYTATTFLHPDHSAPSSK

On to `Cc1cc(/C=C2\CN3CCCC2C3)on1.O=C(O)C(=O)O` (stereo not shown) [Compound 3, (Z)-6-(3-methyl-5-isoxazolyl)methylene-1-azabicyclo[3.2.1]octane oxalate], for which, in [1], the “Ratio Oxo/MCC” value is on record as 5.9 and the IC50 was determined as 161 nM. Further, the half-inhibitory concentration (IC50) in series [2] worked out at 953 nM.
For the compound `Cc1cc(/C=C2/CN3CCCC2C3)on1.O=C(O)C(=O)O` (stereo not shown) [Compound 4, (E)-6-(3-methyl-5-isoxazolyl)methylene-1-azabicyclo[3.2.1]octane oxalate], in [1], the “Ratio Oxo/MCC” value was 22.1 and the IC50 came to 81 nM. Also, in series [2], the IC50 was 1780 nM.
On the same counts, the results for `Cc1cc(/C=C2\CN3CCC2C3)on1.O=C(O)C(=O)O` (stereo not shown) [Compound 5, (Z)-3-(3-methyl-5-isoxazolyl)methylene-1-azabicyclo[2.2.1]heptane oxalate] are 17.2, 25 nM and 430 nM.
For `Cc1cc(/C=C2/CN3CCC2C3)on1.O=C(O)C(=O)O` (stereo not shown) [Compound 6, (E)-3-(3-methyl-5-isoxazolyl)methylene-1-azabicyclo[2.2.1]heptane oxalate], in series [1], the “Ratio Oxo/MCC” value is listed as 55.0 and the IC50 was 20 nM. Also, in series [2], the IC50 was 1100 nM.
In the case of `C[N+](C)(C)CC#CCN1CCCC1=O` [^3 H-Oxo, ^3 H-Oxotremorine-M], the Kd in series [3] (high affinity site) is 1.8 nM; in series [3] (medium affinity site), 20 nM; in series [3] (third (lowest affinity) site, not determined under the present conditions) it was 3000 nM.
For the compound `CNC1(C)C2CCC(C2)C1(C)C` (stereo not shown) [mecamylamine], in the series with nicotinic, the cognitive impairment entry was “cause cognitive impairment in an age related way”.
Turning to `CN1CCCC1c1cccnc1` (stereo not shown) [nicotine], the attention and memory result in the series with healthy humans is “improved attention and memory”; in series [4], “improved attention and memory”. Moreover, the “protection against cell loss in the substantia nigra” value in the series on substantia nigra is “may protect against cell loss in the substantia nigra caused by lesioning”. In the series with Tourette's syndrome, the “effects in Tourette's syndrome” value is on record as “beneficial effects in Tourette's syndrome”. The dopamine release entry with dopamine release is recorded as “stimulates dopamine release in the nucleus accumbens more potently than in striatum”. Further, the “potentiation of dopaminergic effects” value in the series on dopaminergic effects is reported as “will potentiate dopaminergic effects in various behavioral models”.
